Results as given in patent US11879021B2, “Cyclic peptides and uses thereof” (UNIVERSITÉ DE MONTRÉAL, priority 2016, dated 2024).

Tests used:
[1] = system: R-FSL-1 (TLR2 agonist)-induced NO production in RAW macrophage cell line; test: Nitric oxide (NO) production induced by TLR2 agonist R-FSL-1 in RAW macrophage cell line; format: cell-based, murine; conditions: RAW macrophages
Procedure: The murine RAW1 macrophage cell line was obtained from American Type Cell Collection (ATCC #TIB-71), seeded at 1.5×10^5 cells/well in Dulbecco's Modified Eagle's medium (DMEM) containing 100 U/mL of penicillin (Pen) and 100 μg/mL of streptomycin (Strep) on a 48-well plate (Costar® #3548), and incubated at 37° C. with 5% CO2. After 2 h, the cell culture medium of adhered cells was removed and replaced by DMEM-Pen/Strep medium containing 0.2% of bovine serum albumin (BSA), and supplemented with the cyclic peptides at a concentration of 10^−6 or 10^−7 M. MPE-001 (DBG178, His-D-Trp-Ala-AzaTyr-D-Phe-Lys-NH2) and [azaLys^6]-GHRP-6 (His-D-Trp-Ala-Trp-D-Phe-azaLys-NH2, negative control) at 10^−6 M were used as positive and negative controls, respectively. After 1 h pre-incubation, the cells were stimulated overnight using the TLR2 ligand fibroblast-stimulating lipopeptide (R-FSL-1) (Invivogen® #L7022) at a concentration of 300 ng/mL. Supernatants were then collected for nitrite production analysis by fluorescence using 2,3-diaminonaphthalene (DAN). Briefly, 25 μL of sample was incubated with 0.5 μg of DAN in a 100 μL final volume of phosphate buffer (50 mM, pH 7.5) at room temperature in the dark. After 15 min, the reaction was stopped with 20 μL of NaOH (2.8N) and the plate was read using a fluorescence plate reader (TECAN® Safire, λexc 365 nm and λem 430 nm).

[2] = system: R-FSL-1-induced IL-1β and TNF-α secretion in bone marrow-derived macrophages; test: IL-1β and TNF-α secretion in bone marrow-derived macrophages (BMDM) stimulated with R-FSL-1; format: cell-based, mice; conditions: murine BMDM primed with LPS, 10^−6 to 10^−11 M
Excerpt: Bone marrow-derived macrophages isolation and purification. Bone marrow-derived macrophages (BMDM) were isolated from the tibia and femur of 4-month-old C57Bl/6 mice. Mice were euthanized in a CO2 chamber individually. Tibia and femur were dissected from dead mice after removing the skin and the muscles and stored in cold DMEM before use. The bones are placed in Petri dishes containing sterile PBS and immersed in ice. In a laminar flow of culture, bones are immersed in 70% ethanol for one minute, and then rinsed in sterile PBS. Bones were cut in 2 pieces using sterile forceps and scissors and put in pierced 0.6 mL tubes which were put in 2 mL centrifuge tubes containing 200 μL of DMEM. After 1 min of centrifugation at 6500 RPM, pellets of bone marrow cells were gently resuspended and pooled in a 50 mL tube. Cells were counted and monocytes were purified from the bone marrow cells using the EasySep™ Mouse Monocyte Isolation Kit (StemCell Technologies, #19861) according to the manufacturer instructions. […] Statistical significance of data was analyzed by analysis of variance (ANOVA) with post-hoc comparisons using Dunnett's test with statistical software package (Graph Pad Prism version 7.0). […]

[3] = system: R-FSL-1 (TLR2 agonist)-induced TNF-α and CCL-2 release in RAW macrophages; test: R-FSL-1-induced TNF-α and CCL-2 release in RAW macrophages; format: cell-based, murine; conditions: 10^−7 M
Procedure: The murine RAW1 macrophage cell line was obtained from American Type Cell Collection (ATCC #TIB-71). RAW cells were seeded at 150,000 cells per well in a 48-well plate (Costar® #3548) and weaned overnight in medium (DMEM supplemented 1% penicillin/streptomycin) at 37° C. with 5% CO2. The next day, the medium was changed to DMEM-1% penicillin/streptomycin supplemented with 0.2% BSA. The cells were first pretreated with 300 μL of azapeptides DBG178 (MPE-133, reference standard), 25 (MPE-210), 26 (MPE-266), 28 (MPE-268), 32 (MPE-267), 33 (MPE-298), 38 (MPE-308), 35 (MPE-300), 39 (MPE-310) and azaLys6-GHRP-6 (as negative control) at 10^-7M for 30 min. Then, […] of the TLR2 agonist, R-FSL-1 (300 ng/ml final concentration, R-FSL-1, Invivogen® #L7022) was added for 4 h period of incubation at 37° C. with 5% CO2. At the end of the incubation period, media were collected and stored at −80° C. for TNF-α and CCL-2 assays using ELISA kits (EbioScience® #88-7391 and #88-7324). Results were analyzed by analysis of variance (ANOVA) with post hoc comparisons using Dunnett's test with a statistical software package (Graph Pad Prism® version 7.0). P<0.05 was considered statistically significant.

[4] = system: R-FSL-1 (TLR2 agonist)-induced TNF-α and CCL-2 release in RAW macrophages; test: as above; format: cell-based, murine; conditions: 10^−7 M; remark: listed apart in the source
[5] = system: apoE−/− mice; test: Murine atherosclerosis model (apoE−/− mice on atherogenic diet), aortic lesions; format: in vivo; conditions: 300 nmol/kg daily s.c. for 8 weeks
Procedure: Experiments were performed in male apoE−/− mice fed an atherogenic diet (D12108, cholate-free AIN-76A semi-purified diet, Research Diets Inc., New Brunswick, NJ) from 4 weeks of age. MPE-298 (300 nmol/kg), MPE-267 (300 nmol/kg) or vehicle (0.9% NaCl), were administered by daily by subcutaneous (s.c.) injections for 8 weeks, from 12 weeks of age, as shown schematically in FIG. 8A.

## C=CCN1CC#CCN(NC(=O)[C@H](C)N)C(=O)N[C@H](Cc2c[nH]c3ccccc23)C(=O)N[C@@H](C)C(=O)N[C@@H](Cc2c[nH]c3ccccc23)C(=O)N[C@H](Cc2ccccc2)C(=O)N[C@H](C(N)=O)CCCC1 [MPE-298]
[1]; 10^−7 M, FIG. 4F
  suppression of NO production compared with positive control MPE-001 at the same concentration: more important
[1]; 10^−7 M, further analyses, FIG. 4F
  suppression of R-FSL-1-mediated NO production at 10^−7 M: significant suppression
[1]; at the concentration tested (10^−6 or 10^−7 M), FIGS. 4A to 4F
  suppression of R-FSL-1-mediated NO production: significant suppression
[2]
  secretion of IL-1β induced by R-FSL-1: able to inhibit
  secretion of TNF-α induced by R-FSL-1: able to inhibit
[3]
  effect on R-FSL-1-induced CCL-2 release: significant inhibitory effect
  effect on R-FSL-1-induced TNF-α release: significant inhibitory effect
[4]
  inhibitory effect on R-FSL-1-induced CCL-2 release compared with reference standard DBG178 (MPE-001): significantly higher
[5]
  reduction of aortic lesions relative to 0.9% NaCl (vehicle): 42%
